Measured values published in ChEMBL document CHEMBL1201862, “PubChem BioAssay data set” (2004).
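Cultured in 96-well plates, cells were exposed to test compound for 48 hours across five concentrations. GI50 = concentration required for 50% inhibition of growth.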 Active and inactive are the calls of the source. No stated cut-off is given here; in the data, active = GI50 up to about 1.1 µM and inactive = higher.

Legend:
Assay in all cases: DTP human tumour cell line panel, 48 h
COLO 205 = test system: COLO 205
NCI-H226 = test system: NCI-H226
SW-620 = test system: SW-620
SK-MEL-5 = test system: SK-MEL-5
SNB-78 = test system: SNB-78
M19-MEL = test system: M19-MEL
RXF 631 = test system: RXF 631
HL-60 = test system: HL-60
HCT-15 = test system: HCT-15
SF-539 = test system: SF-539
MOLT-4 = test system: MOLT-4
SK-MEL-2 = test system: SK-MEL-2
HT-29 = test system: HT-29
SNB-19 = test system: SNB-19
SK-OV-3 = test system: SK-OV-3
Malme-3M = test system: Malme-3M
SF-295 = test system: SF-295
NCI-H23 = test system: NCI-H23
OVCAR-3 = test system: OVCAR-3
NCI-H522 = test system: NCI-H522
TK-10 = test system: TK-10
DMS-114 = test system: DMS-114
IGROV-1 = test system: IGROV-1
OVCAR-4 = test system: OVCAR-4
HOP-92 = test system: HOP-92
K562 = test system: K562
A549 = test system: A549
SNB-75 = test system: SNB-75
HCT-116 = test system: HCT-116
XF498 = test system: XF498
RXF 393 = test system: RXF 393
KM-20L2 = test system: KM-20L2
UACC-62 = test system: UACC-62
HOP-62 = test system: HOP-62
UACC-257 = test system: UACC-257
OVCAR-8 = test system: OVCAR-8
LOX IMVI = test system: LOX IMVI
RPMI-8226 = test system: RPMI-8226
SN12C = test system: SN12C
UO-31 = test system: UO-31
ACHN = test system: ACHN
SF-268 = test system: SF-268
KM12 = test system: KM12
SK-MEL-28 = test system: SK-MEL-28
M14 = test system: M14
U-251 = test system: U-251
DLD-1 = test system: DLD-1
786-0 = test system: 786-0
NCI-H460 = test system: NCI-H460
LXFL 529 = test system: LXFL 529
OVCAR-5 = test system: OVCAR-5
A498 = test system: A498
CCRF-CEM = test system: CCRF-CEM
CAKI-1 = test system: CAKI-1
HCC 2998 = test system: HCC 2998
DMS-273 = test system: DMS-273
HOP-18 = test system: HOP-18
EKVX = test system: EKVX
SR = test system: SR

## CCOC(OC(C)=O)[C@@H]1C=C[C@H](C)N(c2ccc([N+](=O)[O-])cc2)O1 (stereo not given in full)
COLO 205
  GI50: 11.9 µM (inactive)
NCI-H226
  GI50: 5.57 µM (inactive)
SW-620
  GI50: 2.46 µM (inactive)
SK-MEL-5
  GI50: 4 µM (inactive)
SNB-78
  GI50: 7.48 µM (inactive)
M19-MEL
  GI50: 2.14 µM (inactive)
RXF 631
  GI50: 4.98 µM (inactive)
HL-60
  GI50: 1.82 µM (inactive)
HCT-15
  GI50: 2.4 µM
SF-539
  GI50: 2.54 µM (inactive)
MOLT-4
  GI50: 1.86 µM (inactive)
SK-MEL-2
  GI50: 4.26 µM (inactive)
HT-29
  GI50: 3.17 µM (inactive)
SNB-19
  GI50: 14.7 µM (inactive)
SK-OV-3
  GI50: 17.8 µM (inactive)
Malme-3M
  GI50: 7.98 µM (inactive)
SF-295
  GI50: 11.4 µM (inactive)
NCI-H23
  GI50: 2.84 µM (inactive)
OVCAR-3
  GI50: 5.66 µM (inactive)
NCI-H522
  GI50: 3.16 µM (inactive)
TK-10
  GI50: 5.7 µM (inactive)
DMS-114
  GI50: 4.69 µM (inactive)
IGROV-1
  GI50: 7.98 µM (inactive)
OVCAR-4
  GI50: 6.49 µM (inactive)
HOP-92
  GI50: 6.25 µM (inactive)
K562
  GI50: 2.73 µM (inactive)
A549
  GI50: 20.2 µM (inactive)
SNB-75
  GI50: 4.79 µM (inactive)
HCT-116
  GI50: 1.25 µM (inactive)
XF498
  GI50: 14.6 µM (inactive)
RXF 393
  GI50: 0.759 µM (active)
KM-20L2
  GI50: 8.55 µM (inactive)
UACC-62
  GI50: 2.54 µM (inactive)
HOP-62
  GI50: 10.7 µM (inactive)
UACC-257
  GI50: 9.82 µM (inactive)
OVCAR-8
  GI50: 2.02 µM (inactive)
LOX IMVI
  GI50: 1.87 µM (inactive)
RPMI-8226
  GI50: 2.06 µM (inactive)
SN12C
  GI50: 3.4 µM (inactive)
UO-31
  GI50: 3.45 µM (inactive)
ACHN
  GI50: 5.13 µM (inactive)
SF-268
  GI50: 3.13 µM (inactive)
KM12
  GI50: 2.5 µM (inactive)
SK-MEL-28
  GI50: 3.01 µM (inactive)
M14
  GI50: 3.06 µM (inactive)
U-251
  GI50: 2.74 µM (inactive)
DLD-1
  GI50: 2.59 µM (inactive)
786-0
  GI50: 2.67 µM (inactive)
NCI-H460
  GI50: 10.6 µM (inactive)
LXFL 529
  GI50: 3.65 µM (inactive)
OVCAR-5
  GI50: 2.76 µM (inactive)
A498
  GI50: 27.6 µM (inactive)
CCRF-CEM
  GI50: 2.29 µM (inactive)
CAKI-1
  GI50: 7.8 µM (inactive)
HCC 2998
  GI50: 11.9 µM (inactive)
DMS-273
  GI50: 3.19 µM (inactive)
HOP-18
  GI50: 8.79 µM (inactive)
EKVX
  GI50: 16.1 µM (inactive)

## N#CC(c1ccccc1)c1nc2ccc(N)cc2[n+]([O-])c1C(C#N)c1ccccc1 (stereo not given)
COLO 205
  GI50: 76.4 µM (inactive)
SR
  GI50: 23.8 µM (inactive)
NCI-H226
  GI50: > 100 µM (inactive)
SW-620
  GI50: 57.4 µM (inactive)
SK-MEL-5
  GI50: 1 µM (active)
SNB-78
  GI50: > 100 µM (inactive)
M19-MEL
  GI50: 55.1 µM (inactive)
RXF 631
  GI50: 86.9 µM (inactive)
HL-60
  GI50: 34.9 µM (inactive)
HCT-15
  GI50: 46 µM
SF-539
  GI50: > 100 µM (inactive)
MOLT-4
  GI50: 53.7 µM (inactive)
SK-MEL-2
  GI50: 40.2 µM (inactive)
HT-29
  GI50: 58.7 µM (inactive)
SNB-19
  GI50: > 100 µM (inactive)
SK-OV-3
  GI50: > 100 µM (inactive)
Malme-3M
  GI50: 99.5 µM (inactive)
SF-295
  GI50: > 100 µM (inactive)
NCI-H23
  GI50: 67.8 µM (inactive)
OVCAR-3
  GI50: 91.8 µM (inactive)
NCI-H522
  GI50: 46.9 µM (inactive)
TK-10
  GI50: > 100 µM (inactive)
IGROV-1
  GI50: > 100 µM (inactive)
OVCAR-4
  GI50: 74 µM (inactive)
K562
  GI50: 44.5 µM (inactive)
A549
  GI50: 57.8 µM (inactive)
HCT-116
  GI50: 54.1 µM (inactive)
XF498
  GI50: 48.5 µM (inactive)
RXF 393
  GI50: 38.9 µM (inactive)
KM-20L2
  GI50: 75.3 µM (inactive)
UACC-62
  GI50: 47.3 µM (inactive)
HOP-62
  GI50: > 100 µM (inactive)
UACC-257
  GI50: > 100 µM (inactive)
OVCAR-8
  GI50: 56.4 µM (inactive)
LOX IMVI
  GI50: 64.9 µM (inactive)
SN12C
  GI50: 79.1 µM (inactive)
UO-31
  GI50: 68.2 µM (inactive)
ACHN
  GI50: 58.1 µM (inactive)
SF-268
  GI50: > 100 µM (inactive)
KM12
  GI50: 60.7 µM (inactive)
SK-MEL-28
  GI50: > 100 µM (inactive)
M14
  GI50: 86.7 µM (inactive)
U-251
  GI50: 59.6 µM (inactive)
DLD-1
  GI50: 43.6 µM (inactive)
786-0
  GI50: > 100 µM (inactive)
NCI-H460
  GI50: 73.3 µM (inactive)
LXFL 529
  GI50: 51.1 µM (inactive)
OVCAR-5
  GI50: > 100 µM (inactive)
A498
  GI50: > 100 µM (inactive)
CCRF-CEM
  GI50: 46.6 µM (inactive)
CAKI-1
  GI50: 69.8 µM (inactive)
DMS-273
  GI50: 45.9 µM (inactive)
HOP-18
  GI50: > 100 µM (inactive)
EKVX
  GI50: > 100 µM (inactive)

## COc1ccc(/C(Cl)=C(/c2ccc(O)cc2)c2ccc(OCCN(C)C)cc2)cc1
COLO 205
  GI50: 9.86 µM (inactive)
SR
  GI50: 2.9 µM (inactive)
NCI-H226
  GI50: 16.1 µM (inactive)
SW-620
  GI50: 11.9 µM (inactive)
SK-MEL-5
  GI50: 4.28 µM (inactive)
SNB-78
  GI50: 14.5 µM (inactive)
M19-MEL
  GI50: 3.72 µM (inactive)
RXF 631
  GI50: 12.4 µM (inactive)
HL-60
  GI50: 10.2 µM (inactive)
HCT-15
  GI50: 11.3 µM
SF-539
  GI50: 11.5 µM (inactive)
SK-MEL-2
  GI50: 10.4 µM (inactive)
HT-29
  GI50: 2.13 µM (inactive)
SNB-19
  GI50: 14.1 µM (inactive)
SK-OV-3
  GI50: 13.1 µM (inactive)
Malme-3M
  GI50: 4.62 µM (inactive)
SF-295
  GI50: 4.78 µM (inactive)
NCI-H23
  GI50: 15.6 µM (inactive)
OVCAR-3
  GI50: 15.3 µM (inactive)
NCI-H522
  GI50: 12.1 µM (inactive)
TK-10
  GI50: 19.7 µM (inactive)
DMS-114
  GI50: 7.18 µM (inactive)
IGROV-1
  GI50: 16.4 µM (inactive)
OVCAR-4
  GI50: 13.9 µM (inactive)
A549
  GI50: 13.8 µM (inactive)
SNB-75
  GI50: 11 µM (inactive)
XF498
  GI50: 3.65 µM (inactive)
RXF 393
  GI50: 5.12 µM (inactive)
KM-20L2
  GI50: 3.1 µM (inactive)
UACC-62
  GI50: 16.6 µM (inactive)
HOP-62
  GI50: 13.6 µM (inactive)
UACC-257
  GI50: 2.9 µM (inactive)
OVCAR-8
  GI50: 15.5 µM (inactive)
LOX IMVI
  GI50: 2.96 µM (inactive)
RPMI-8226
  GI50: 5.96 µM (inactive)
SN12C
  GI50: 12.9 µM (inactive)
UO-31
  GI50: 7.03 µM (inactive)
ACHN
  GI50: 14.6 µM (inactive)
SF-268
  GI50: 11.8 µM (inactive)
KM12
  GI50: 9.14 µM (inactive)
SK-MEL-28
  GI50: 4.38 µM (inactive)
M14
  GI50: 2.1 µM (inactive)
U-251
  GI50: 11.2 µM (inactive)
DLD-1
  GI50: 15.7 µM (inactive)
786-0
  GI50: 6.03 µM (inactive)
NCI-H460
  GI50: 12.7 µM (inactive)
LXFL 529
  GI50: 10.8 µM (inactive)
OVCAR-5
  GI50: 13.3 µM (inactive)
CAKI-1
  GI50: 14.3 µM (inactive)
HCC 2998
  GI50: 16.7 µM (inactive)
DMS-273
  GI50: 11.1 µM (inactive)
HOP-18
  GI50: 12.5 µM (inactive)
EKVX
  GI50: 16.6 µM (inactive)
